Measured values taken from patent publication EP0419308A2, “Use of glutamic acid or gum arabic as anti-complement agent” (Chevance, Léon Georges, priority 1989, dated 1991).

System: complément
Test: Anti-complement activity: inhibition of complement in fresh serum (technique of Chevance & Etievant / Rapp & Borsos)
Format: biochemical
Conditions: fresh serum diluted 1/40, 37°C, 45 minutes
From the text: L'activité anti-complément des substances visées par l'invention peut être mise en évidence suivant la technique décrite dans l'article de L-G-CHEVANCE et M. ETIEVANT "Etude d'un peptide (sel de magnésium de l' acide N-Acétyl (α-β)- Aspartyl-glutamique) mise en évidence de la protection contre les destructions cellulaires locales provoquées par l'activation in situ du complément" (J. Pharmacol. Paris 1986 n° 4, 676-685), ainsi que dans la parution de J. RAPP et T. BORSOS "Molecular basis of complement action" Appleton Century Crofts publ. 1970.
Après titrage du complément, on incube à 37°C pendant 45 minutes des prélèvements aliquots de 40 µl de sérum frais dilué au 1/40e, mélangés chacun respectivement à 40 µl de solutions aqueuses de concentrations croissantes de chaque substance analysée : acide L-glutamique, glutamate de sodium, gomme arabique et d'un mélange, à concentrations égales de gomme arabique et de glutamate de sodium.

Row | SMILES | % inhibition (Concentration 0,05 %) | % inhibition (Concentration 0,5 %) | % inhibition (Concentration 0,25 %) | % inhibition (Concentration 1 %) | % inhibition (Concentration 1,5 %) | % inhibition (Concentration 2 %) | % inhibition (Concentration 0,062 %) | % inhibition (Concentration 0,125 %)
1 | N[C@@H](CCC(=O)O)C(=O)O [Acide glutamique, acide L-glutamique] | 0,033% | 0,092% | 0,000% | 0,077% | 0,369% | 0,661% |  | 
2 | N[C@@H](CCC(=O)O)C(=O)O [Glutamate de sodium, L-glutamate de sodium] |  | 0,175% | 0,112% | 0,216% |  |  | 0,101% | 0,116%
